Source: patent US20130090305A1, “METHOD USING A DIETARY SUPPLEMENT FOR HEALING OR REGRESSING SYMPTOMS OF GASTROESOPHAGEAL REFLUX DISEASE, GASTRITIS AND ULCERS” (priority 2006, published 2013)

Legend:
[1] = test system: chronic GERD, ulcer of 6 cm in the esophagus; assay: Case of a patient with chronic GERD and a 6 cm esophageal ulcer; type: in vivo, human; conditions: before the formulation; regurgitation and heartburn
[2] = test system: nitric oxide biosynthesis; conditions: cited from earlier work
[3] = test system: spontaneous gastric ulcers; conditions: 4-week administration in the diet, young pigs; cited from earlier work
gastric acid secretion = conditions: cited from earlier work

Row | SMILES | relief of symptoms with earlier treatments [1] | effect on nitric oxide biosynthesis [2] | incidence of spontaneous gastric ulcers [3] | action on gastric acid secretion (gastric acid secretion)
1 | O=C([O-])O.[Na+] [baking soda] | Neither treatment produced even partial relief | – | – | –
2 | COc1ccc2[nH]cc(CCNC(C)=O)c2c1 [melatonin, N-Acetyl-5-methoxytryptamine] | – | inhibits | significantly reduced | inhibitory action
